How the values were obtained:
ER/IL-6 = test: Endothelial Cell ER/IL-6 Assay, IL-6 promoter luciferase (Table 2); format: cell-based, human; conditions: Homo sapiens, HAECT1, ERα infected HAECT-1 cells, IL-1β; for Emax: read-out: IL6 luc % Efficacy; for IC50: read-out: IL6 luc IC50
Protocol: T-175 flasks of 100% confluent HAECT-1 cells (immortalized human aortic endothelial cells) were washed with 8 ml of HBSS (HEPES buffered saline solution) and infected for fours hours with 6 ml of a 1:10 dilution of Ad5-wt-hERα virus (an adenovirus transfection vector that mediates CMV promoter driven expression of human ERα) in phenol red free Endothelial Cell Basal medium (Clonetics, San Diego, Calif., Catalog # CC-3129) containing 0.25% bovine serum albumin (EDM-BSA). After four hours, cells were washed with EDM-BSA and incubated overnight in the same medium. Following overnight incubation, cells were washed with EDM-BSA and infected for 2 hours with 6 ml of a 1:10 dilution of Ad5-3x(NFκB).Luc virus (Adenovirus luciferase expression vector driven by three repeats of the MHC NFκb sites 5′ to the thymidine kinase promoter) in EDM-BSA. After two hours, cells were washed and incubated at 34° C. for one hour. Cells were then washed, trypsinized, counted, and resuspended in 95% FBS/5% dimethylsulfoxide at a concentration of […], frozen as 1 or 5 ml aliquots in cryo-vials and stored at −150° C. Control (no ER infection) cells were processed as above without Ad5-wt-hERα virus infection.
ERα infected HAECT-1 cells or control cells were thawed, diluted 42× in warm EBM-BSA, plated into 96-well plates at 0.1 ml/well and incubated for 4 hours at 34° C. Test compounds were added to the cells at 2× stocks in EBM-BSA containing 2 ng/ml IL-1β Ad6-IL-6(1250 bp).Luc virus and plates were returned to the incubator (34° C.). After […], cells were lysed with 50 μl of Promega Cell Culture Lysis reagenet for about 5 minutes at room temperature on a shaker. After lysing, 15 μl of lysate is transferred to luminometer plates for luciferase determination. Luciferase activity is evaluated using a Perkin Elmer Victor2 1420 multilabel counter. Creatine kinase was determined from the rate of increase in A340 following addition of 100 μl of CK assay reagent (Sigma catalog no. 47-10) to the remainder of the cell lysate.
For IC50 and EC50 calculations, mean IL-6, luciferase or CK values versus log10 of the compound concentration were fitted to a four parameter logistic equation. The IC50/EC50 value, ‘Hill slope,’ upper and lower limits of the curve were iteratively estimated.

| Structure (SMILES) | melting point | Emax (ER/IL-6) [%] | IC50 (ER/IL-6) [nM] |
| --- | --- | --- | --- |
| COc1ccccc1[C@H](c1cccc2ccccc12)[C@@](C)(C#N)C(=O)N1CCN(c2ccncc2)CC1 [Example 133, (2S,3S)-3-(2-methoxyphenyl)-2-methyl-3-(1-naphthyl)-2-[(4-pyridin-4-ylpiperazin-1-yl)carbonyl]propanenitrile] | 142 to 144 °C | 81 | 206 |
| COc1ccccc1[C@H](c1cccc2ccccc12)[C@@](C)(C#N)C(=O)N1CCc2[nH]c3ccc(F)cc3c2C1 [Example 189, (2S)-3-(8-fluoro-1,3,4,5-tetrahydro-2H-pyrido[4,3-b]indol-2-yl)-2-[(S)-(2-methoxyphenyl)(1-naphthyl)methyl]-2-methyl-3-oxopropanenitrile] | 172 to 174 °C | 103 | 348 |
| COC(=O)[C@@](C#N)(Cc1ccncc1)[C@H](c1ccccc1OC)c1cccc2ccccc12 (relative stereo) [Example 142, Methyl (2S*,3S*)-2-cyano-3-(2-methoxyphenyl)-3-(1-naphthyl)-2-(pyridin-4-ylmethyl)propanoate] | 228 to 230 °C (dec.) | 103 | 69 |
| COc1ccccc1[C@H](c1cccc2ccccc12)[C@@](C)(C#N)C(=O)N1CCC2(CC1)C(=O)NCN2c1ccccc1 [Example 184, (2S,3S)-3-(2-methoxyphenyl)-2-methyl-3-(1-naphthyl)-2-[(4-oxo-1-phenyl-1,3,8-triazaspiro[4.5]dec-8-yl)carbonyl]propanenitrile] | 176 to 178 °C | 88 | 445 |
| COc1ccccc1C(c1ccnc2ccccc12)C(C)(C#N)C(=O)N1CCC(c2cccc(C(F)(F)F)c2)CC1 (stereo not drawn) [Example 161, 3-(2-Methoxyphenyl)-2-methyl-3-quinolin-4-yl-2-({4-[3-(trifluoromethyl)phenyl]piperidin-1-yl}carbonyl)propanenitrile] | 163 to 165 °C | 122 | 798 |
| COC(=O)[C@@](C#N)(COCc1ccccc1)[C@H](c1ccccc1OC)c1cccc2ccccc12 (relative stereo) [Example 146, Methyl (2S*,3S*)-2-[(benzyloxy)methyl]-2-cyano-3-(2-methoxyphenyl)-3-(1-naphthyl)propanoate] | 132.9 to 134.4 °C | 135 | 5.5 |
| COc1ccccc1[C@H](c1cccc2ccccc12)[C@@](C)(C#N)C(=O)N1CCC(C(C)=O)(c2ccccc2)CC1 [Example 195, (2S)-3-(4-acetyl-4-phenylpiperidin-1-yl)-2-[(S)-(2-methoxyphenyl)(1-naphthyl)methyl]-2-methyl-3-oxopropanenitrile] | 134 to 135 °C | 74 | 710 |
| COC[C@](C#N)(C(=O)N1CCN(c2ncccn2)CC1)[C@H](c1ccccc1OC)c1cccc2ccccc12 [Example 210, (2S,3S)-2-(methoxymethyl)-3-(2-methoxyphenyl)-3-(1-naphthyl)-2-[(4-pyrimidin-2-ylpiperazin-1-yl)carbonyl]propanenitrile] | 140 °C | 132 | 16 |
| COc1ccccc1[C@H](c1cccc2ccccc12)[C@@](C)(C#N)C(=O)N1CCN(c2cccc(C(F)(F)F)c2)CC1 [Example 136, (2S,3S)-3-(2-methoxyphenyl)-2-methyl-3-(1-naphthyl)-2-({4-[3-(trifluoromethyl)phenyl]piperazin-1-yl}carbonyl)propanenitrile] | 158 to 162 °C | 142 | 63 |
| COC[C@](C#N)(C(=O)OC(C)(C)C)[C@H](c1ccccc1OC)c1cccc2ccccc12 (relative stereo) [Example 149, tert-Butyl (2S*,3S*)-2-cyano-2-(methoxymethyl)-3-(2-methoxyphenyl)-3-(1-naphthyl)propanoate] | 163 to 165.3 °C | 102 | 18 |

Reference: US20050256132A1, “Use of ER selective NF-kB inhibitors for the treatment of sepsis” (priority 2003, published 2005)
